Reference: the NIST ThermoML archive (doi:10.1016/j.jct.2005.08.002)

Experiment: xn = mol fraction of the nth substance listed
Conditions: 101 kPa, Liquid; for viscosity: Capillary tube (Ostwald / Ubbelohde) method; for speed of sound: Sing-around technique in a fixed-path interferometer; for mass density: Vibrating tube method

CC1CCCC1 [methylcyclopentane] + CC(C)=O
Conditions | mass density, 293.15 K [kg/m3] | mass density, 298.15 K [kg/m3] | mass density, 303.15 K [kg/m3] | speed of sound, 293.15 K [m/s] | speed of sound, 298.15 K [m/s] | speed of sound, 303.15 K [m/s] | viscosity, 293.15 K [mPa·s] | viscosity, 298.15 K [mPa·s] | viscosity, 303.15 K [mPa·s]
x1 = 0.05 | 785.97 | 780.3 | 774.59 | 1177 | 1155 | 1132 | 0.323 | 0.308 | 0.294
x1 = 0.0985 | 781.33 | 775.71 | 770.04 | 1171 | 1148 | 1126 | 0.323 | 0.308 | 0.294
x1 = 0.2004 | 773.02 | 767.49 | 761.9 | 1162 | 1139 | 1116 | 0.333 | 0.317 | 0.302
x1 = 0.3009 | 766.13 | 760.68 | 755.18 | 1157 | 1134 | 1111 | 0.347 | 0.33 | 0.316
x1 = 0.4024 | 760.79 | 755.43 | 750.02 | 1156 | 1133 | 1110 | 0.361 | 0.344 | 0.328
x1 = 0.5029 | 756.32 | 751.06 | 745.74 | 1157 | 1134 | 1111 | 0.378 | 0.359 | 0.341
x1 = 0.6052 | 752.71 | 747.55 | 742.34 | 1161 | 1137 | 1114 | 0.396 | 0.375 | 0.355
x1 = 0.7112 | 749.82 | 744.77 | 739.67 | 1166 | 1143 | 1120 | 0.418 | 0.395 | 0.374
x1 = 0.8139 | 747.82 | 742.89 | 737.92 | 1174 | 1151 | 1127 | 0.438 | 0.415 | 0.393
x1 = 0.9084 | 746.75 | 741.94 | 737.09 | 1184 | 1161 | 1137 | 0.467 | 0.442 | 0.418
x1 = 0.954 | 746.58 | 741.83 | 737.04 | 1190 | 1167 | 1143 | 0.482 | 0.457 | 0.432
x1 = 1 | 746.64 | 741.94 | 737.21 | 1197 | 1174 | 1150 | 0.504 | 0.476 | 0.45

CC1CCCC1 [methylcyclopentane] + CCC(C)=O
Conditions | mass density, 293.15 K [kg/m3] | mass density, 298.15 K [kg/m3] | mass density, 303.15 K [kg/m3] | speed of sound, 293.15 K [m/s] | speed of sound, 298.15 K [m/s] | speed of sound, 303.15 K [m/s] | viscosity, 293.15 K [mPa·s] | viscosity, 298.15 K [mPa·s] | viscosity, 303.15 K [mPa·s]
x1 = 0.048 | 800.42 | 795.21 | 789.96 | 1208 | 1187 | 1165 | 0.397 | 0.378 | 0.36
x1 = 0.0982 | 795.99 | 790.8 | 785.57 | 1203 | 1181 | 1160 | 0.396 | 0.376 | 0.358
x1 = 0.1942 | 787.99 | 782.84 | 777.64 | 1195 | 1173 | 1151 | 0.397 | 0.377 | 0.358
x1 = 0.2911 | 780.72 | 775.6 | 770.44 | 1188 | 1166 | 1144 | 0.402 | 0.383 | 0.364
x1 = 0.398 | 773.4 | 768.32 | 763.2 | 1183 | 1161 | 1139 | 0.408 | 0.386 | 0.367
x1 = 0.5036 | 766.98 | 761.95 | 756.87 | 1181 | 1158 | 1136 | 0.416 | 0.394 | 0.374
x1 = 0.6033 | 761.6 | 756.62 | 751.6 | 1180 | 1157 | 1135 | 0.427 | 0.404 | 0.383
x1 = 0.6993 | 757.02 | 752.08 | 747.11 | 1181 | 1158 | 1135 | 0.439 | 0.415 | 0.394
x1 = 0.8045 | 752.53 | 747.68 | 742.78 | 1184 | 1161 | 1138 | 0.455 | 0.431 | 0.409
x1 = 0.906 | 749.02 | 744.24 | 739.42 | 1189 | 1166 | 1143 | 0.475 | 0.448 | 0.425
x1 = 0.9517 | 747.8 | 743.03 | 738.24 | 1193 | 1169 | 1146 | 0.487 | 0.46 | 0.436
x1 = 1 | 746.64 | 741.94 | 737.21 | 1197 | 1174 | 1150 | 0.504 | 0.476 | 0.45

CC1CCCC1 [methylcyclopentane] + CCCC(C)=O
Conditions | mass density, 293.15 K [kg/m3] | mass density, 298.15 K [kg/m3] | mass density, 303.15 K [kg/m3] | speed of sound, 293.15 K [m/s] | speed of sound, 298.15 K [m/s] | speed of sound, 303.15 K [m/s] | viscosity, 293.15 K [mPa·s] | viscosity, 298.15 K [mPa·s] | viscosity, 303.15 K [mPa·s]
x1 = 0.0493 | 802.59 | 797.76 | 792.9 | 1228 | 1207 | 1187 | 0.49 | 0.462 | 0.439
x1 = 0.0981 | 798.89 | 794.06 | 789.19 | 1224 | 1203 | 1182 | 0.485 | 0.459 | 0.434
x1 = 0.1993 | 791.61 | 786.76 | 781.89 | 1216 | 1194 | 1173 | 0.479 | 0.452 | 0.43
x1 = 0.3038 | 784.4 | 779.56 | 774.7 | 1207 | 1185 | 1164 | 0.473 | 0.449 | 0.425
x1 = 0.3972 | 778.23 | 773.38 | 768.51 | 1201 | 1179 | 1157 | 0.47 | 0.444 | 0.421
x1 = 0.5007 | 771.75 | 766.91 | 762.04 | 1196 | 1174 | 1152 | 0.469 | 0.444 | 0.42
x1 = 0.6069 | 765.58 | 760.74 | 755.87 | 1193 | 1171 | 1148 | 0.468 | 0.442 | 0.419
x1 = 0.6989 | 760.33 | 755.52 | 750.68 | 1191 | 1168 | 1146 | 0.47 | 0.444 | 0.422
x1 = 0.8052 | 754.83 | 750.05 | 745.24 | 1190 | 1168 | 1145 | 0.477 | 0.451 | 0.427
x1 = 0.9039 | 750.38 | 745.64 | 740.86 | 1193 | 1170 | 1147 | 0.487 | 0.458 | 0.433
x1 = 0.9508 | 748.6 | 743.88 | 739.12 | 1195 | 1172 | 1148 | 0.493 | 0.466 | 0.44
x1 = 1 | 746.64 | 741.94 | 737.21 | 1197 | 1174 | 1150 | 0.504 | 0.476 | 0.45
